Experimental data published in article PMC4887995, “Small molecule dual-inhibitors of TRPV4 and TRPA1 for attenuation of inflammation and pain” (Scientific Reports, 2016).

Legend:
[1] = target: T1, TRPV3 (Mus musculus, UniProt Q8K424); assay: Ca++ imaging in N2a cells over-expressing TRPV3 (camphor); conditions: 5 μM
T1 sequence (Q8K424 1-791): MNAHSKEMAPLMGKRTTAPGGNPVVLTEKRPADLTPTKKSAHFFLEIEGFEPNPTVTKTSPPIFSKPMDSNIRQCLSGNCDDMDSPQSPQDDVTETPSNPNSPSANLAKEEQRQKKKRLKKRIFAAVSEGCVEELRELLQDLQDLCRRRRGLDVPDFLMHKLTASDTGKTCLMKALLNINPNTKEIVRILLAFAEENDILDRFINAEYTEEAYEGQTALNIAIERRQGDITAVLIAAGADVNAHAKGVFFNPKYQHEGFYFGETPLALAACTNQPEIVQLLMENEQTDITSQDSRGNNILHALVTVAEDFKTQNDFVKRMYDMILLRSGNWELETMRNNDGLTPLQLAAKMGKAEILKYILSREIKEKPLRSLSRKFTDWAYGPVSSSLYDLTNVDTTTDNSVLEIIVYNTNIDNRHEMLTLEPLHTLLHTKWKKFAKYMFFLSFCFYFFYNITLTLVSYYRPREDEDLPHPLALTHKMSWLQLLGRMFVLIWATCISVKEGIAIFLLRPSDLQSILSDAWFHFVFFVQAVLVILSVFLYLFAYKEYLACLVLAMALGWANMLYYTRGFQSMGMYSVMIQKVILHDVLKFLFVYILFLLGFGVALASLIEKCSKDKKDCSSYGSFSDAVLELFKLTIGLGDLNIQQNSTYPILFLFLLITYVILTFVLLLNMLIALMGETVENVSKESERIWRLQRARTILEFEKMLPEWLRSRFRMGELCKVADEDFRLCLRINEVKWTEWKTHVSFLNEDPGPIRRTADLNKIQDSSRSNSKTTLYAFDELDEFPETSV
Method: (§1) (A) Specificity vs TRPV1-3. […] Mean±SEM is shown, ≥100 cells per condition. […] Plot generated from averaged peak ∆Ca^++ concentration of ≥75 cells per data-point.
(§2) N2a cells were used for directed expression of TRP ion channels as described previously[13]. […] All other channels were native channels from mouse, eGFP was co-transfected. […] Ca^++ imaging was performed as described previously[13][14][34].

[2] = target: T2, TRPV2 (Mus musculus, UniProt Q9WTR1); assay: Ca++ imaging in N2a cells over-expressing TRPV2 (hypotonicity); conditions: 5 μM
T2 sequence (Q9WTR1 1-756): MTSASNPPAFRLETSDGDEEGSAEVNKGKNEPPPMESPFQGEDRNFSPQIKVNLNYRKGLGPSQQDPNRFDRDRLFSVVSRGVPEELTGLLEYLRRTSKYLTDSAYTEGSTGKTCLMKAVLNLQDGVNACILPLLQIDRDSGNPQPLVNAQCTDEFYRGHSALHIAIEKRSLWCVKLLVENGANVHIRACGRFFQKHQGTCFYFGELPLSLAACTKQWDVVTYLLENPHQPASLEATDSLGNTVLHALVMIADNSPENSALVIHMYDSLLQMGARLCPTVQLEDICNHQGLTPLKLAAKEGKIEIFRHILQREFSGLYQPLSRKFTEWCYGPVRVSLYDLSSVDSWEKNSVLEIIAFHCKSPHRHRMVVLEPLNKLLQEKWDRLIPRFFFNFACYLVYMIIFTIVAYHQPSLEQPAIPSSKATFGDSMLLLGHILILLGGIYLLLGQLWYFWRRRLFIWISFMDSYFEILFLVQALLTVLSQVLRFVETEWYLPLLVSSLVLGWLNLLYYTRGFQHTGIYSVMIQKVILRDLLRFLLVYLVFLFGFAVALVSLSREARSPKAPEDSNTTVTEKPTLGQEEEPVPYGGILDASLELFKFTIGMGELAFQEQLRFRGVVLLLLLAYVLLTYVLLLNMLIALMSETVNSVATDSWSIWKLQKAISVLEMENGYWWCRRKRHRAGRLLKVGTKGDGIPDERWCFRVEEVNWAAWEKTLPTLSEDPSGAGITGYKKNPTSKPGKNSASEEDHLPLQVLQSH
Method: as §1, §2

[3] = tested on: N2a cells; assay: Cell viability (resazurin) in N2a cells; assay type: cell-based
Method: Figure 6 Cellular toxicity studies of compounds 16-8 and 16-19. N2a cells were subjected to increasing concentrations of compounds 16-8 and 16-19, resulting cell viability was analyzed for the next 48 h. (A) Time course of cell viability in the presence of various concentrations of 16-8. […] Representative result of 2 independent experiments.
N2a cells were cultured in 96 well plates for 24–48 h. Cell viability studies relied on metabolic capability monitored with the indicator dye resazurin. Its reduction to resorufin (indicated by color change dark blue to pink) was monitored over time. Changes in absorbance at λ = 570 nm were recorded using a microplate reader (Molecular Devices). […] Eight replicate cultures per experimental point were studied.

[4] = tested on: formalin-evoked trigeminal irritant pain (TRPA1 contribution); assay: Trigeminal formalin irritant pain model, Trpv4-/- mice; assay type: in vivo, mouse; conditions: 10 mg/kg i.p.; for late-phase pain behavior: vs vehicle
Method: Figure 7 16-8 and 16-19 effectively attenuate formalin-evoked trigeminal irritant pain. (A) Time-course of nocifensive behavior in WT mice following whisker-pad injection of 4% formalin. The mice were pre-injected (i.p., 10 mg/kg; 15 min before formalin) with GSK205, 16-8 or 16-19. Note effective reduction of nocifensive behavior in the late “neural” phase by compounds 16-8, 16-19, not by GSK205. (B) Cumulative response binned into 3 phases: acute phase (0–5 min), interphase (5–15 min), and late “neural” phase (15–45 min). […] (C) As in (A), but also including Trpv4^−/− mice. Compounds were applied i.p. 15 min before formalin challenge, at 10 mg/kg except established TRPA1 blocker, A967079 (25 mg/kg). Previously-established attenuated nocifensive behavior in early and late phase in Trpv4^−/− mice was recapped, which was reduced further by TRPA1 blocker, A967079. (D) As in (B), plus inclusion of Trpv4^−/− mice. Robust effects of TRPA1-blocker, A967079, were mimicked equi-potently by 16-8 and 16-19 for early phase, and by 16-8 for late phase, partially by 16-19 for late phase. (A,C) show averaged behavioral metrics per time-point, bars in (B,D) represent mean ± SEM; for (D) ^*P < 0.05; ^#P < 0.005, one-way ANOVA; for all panels n = 5–8 mice/group. […] We observed significant residual irritant-pain behavior in all phases of the formalin model in Trpv4^−/− mice, consistent with our previous report[13] (Fig. 7C,D). […] A reference TRPA1-inhibitory compound, A967079, was used at 25 mg/kg body weight as a positive control to inhibit TRPA1, based on a previous report. Reduction of pain behavior in Trpv4^−/− mice was striking, more than 50% in the late neural phase. […] We conclude that compound 16-8 also functions as a potent TRPA1-inhibitor in an in-vivo irritant pain model specifically designed to assess the contribution of TRPA1 to trigeminal irritant pain, and at least as potent as an established reference TRPA1-antagonistic compound. Implementation of this model was conducted as described previously. Video-taped nocifensive behavior was assessed by investigators blinded to genotype and treatment.

SMILES | inhibition of TRPV3 [1] | inhibition of TRPV2 [2] | cellular toxicity vs inhibitory potency against TRPV4/TRPA1, factor [3] | cell viability ([3]; increasing concentrations, followed for 48 h) | immediate-phase pain behavior [4] | late-phase pain behavior [4]
CN(CCc1ccc(Nc2nc(-c3ccccc3)cs2)cc1)Cc1ccccc1 [16-8] | did not inhibit | did not inhibit | 50–100 | clear reduction at 40 and 80 μM | virtually eliminated | strikingly reduced
CCN(CCc1ccc(Nc2nc(-c3ccccc3)cs2)cc1)Cc1ccccc1 [16-19] | did not inhibit | did not inhibit | 50–100 | – | virtually eliminated | still significantly reduced
